Reference: patent publication US3954776A, “1-[Methylated piperidino(and pyrrolidin-1-yl)]-3-(substituted phenoxy)-2propanols” (Yoshitomi Pharmeceutical Industries, Ltd., priority 1973, dated 1976)
In brackets after ≈: the same amount, converted by molar mass. Where a name gives a salt, the structure may show the parent alone.

Key:
[1] = system: isolated guinea pig atria; experiment: Antiarrhythmic action on functional refractory period; format: cell-based; conditions: method of Zetler et al; for EC50: Cavia porcellus
Description: 1. Antiarrhythmic action on functional refractory period
The test was performed essentially by the method described by G. Zetler et al in "Naunyn-Schmiedebergs Archiv fur Pharmakologie", vol. 271, 335-345 (1971), using isolated guinea pig atria.

guinea pig [2] = experiment: Surface anaesthetic action; format: in vivo; conditions: relative to procaine = 1; guinea pig (male, about 400 g); method of Chance et al
Description: 3. Surface anaesthetic action
The test was performed essentially by the method described by M.R.A. Chance et al in "Journal of Pharmacology and Experimental Therapeutics", vol. 82, 203-210 (1944), using guinea pig (male, about 400 g).

guinea pig [3] = experiment: Infiltration anaesthetic action; format: in vivo; conditions: relative to procaine = 1; guinea pig (male, about 400 g); method of Bulbring et al
Description: 2. Infiltration anaesthetic action
The test was performed essentially by the method described by E. Bulbring et al in "Journal of Pharmacology and Experimental Therapeutics", vol. 85, 78-84 (1945), using guinea pig (male, about 400 g).

| SMILES | EC50 [1] [µg/mL] | Efficiency Rate (procaine = 1), surface anaesthetic action (guinea pig [2]) | Efficiency Rate (procaine = 1), infiltration anaesthetic action (guinea pig [3]) | EC50 (antiarrhythmic action on functional refractory period) [1] |
| --- | --- | --- | --- | --- |
| COCCOc1ccccc1OCC(O)CN1C(C)(C)CCCC1(C)C (centres unmarked) [A] | 24 (≈ 65.7 µM) | – | – | – |
| CC1(C)CCCC(C)(C)N1CC(O)COc1ccccc1OCC1CCCO1 (centres unmarked) [B] | 17 (≈ 43.4 µM) | 26.7 | – | – |
| CC1(C)CCC(C)(C)N1CC(O)COc1ccccc1OCc1ccco1 (centres unmarked) [C] | 13 (≈ 34.8 µM) | 30.0 | – | – |
| CSCCOc1ccccc1OCC(O)CN1C(C)(C)CCCC1(C)C (centres unmarked) [D] | 15 (≈ 39.3 µM) | 27.2 | – | – |
| CC1(C)CCCC(C)(C)N1CC(O)COc1ccccc1Cc1ccccn1 (centres unmarked) [E] | 22 (≈ 57.5 µM) | – | – | – |
| CC1(C)CCCC(C)(C)N1CC(O)COc1ccccc1Oc1ccccn1 (centres unmarked) [F] | 12 (≈ 31.2 µM) | – | – | – |
| CC1CCCC(C)N1CC(O)COc1ccccc1OCc1cccs1 (centres unmarked) [G] | 18 (≈ 47.9 µM) | 23.6 | – | – |
| CC1(C)CCCC(C)(C)N1CC(O)COc1ccccc1OCc1ccco1 (centres unmarked) [H] | – | – | 51.7 | – |
| CC1CCCC(C)N1CC(O)COc1ccccc1Cc1cccs1 (centres unmarked) [I] | – | 27.1 | 98.7 | – |
| CC1(C)CCCC(C)(C)N1CC(O)COc1ccccc1Cc1cccs1 (centres unmarked) [J] | – | – | 35.6 | – |
| CC1CCCCN1CC(O)COc1ccccc1Cc1cccs1 (centres unmarked) [K] | – | – | 167.5 | – |
| CC1CCCCN1CC(O)COc1ccc(Cc2cccs2)cc1 (centres unmarked) [L] | – | 23.9 | – | – |
| Cc1ccccc1OCC(O)CN1C(C)(C)CCC1(C)C (centres unmarked) [Lotucaine, 1-(2,2,5,5-tetramethylpyrrolidin-1-yl)-3-(o-tolyloxy)-2-propanolhydrochloride, reference compound] | – | 11.1 | 11.3 | no effect |
